Where two headings read alike, the source gives them in different places.
System: Plasmodium falciparum clone from CDC/Indochina III (W-2)
Assay: WRAIR in vitro antimalarial serial dilution assay ([3H]-hypoxanthine incorporation)
Format: cell-based
Excerpt: The Walter Reed Army Institute of Research (WRAIR) in vitro screens for intrinsic antimalarial activity are based on modifications of procedures described in the literature [Desjardins, R. E. et al. (1979) J.D. Antimicrobial Agents and Chemotherapy, 16(6):710-8]; Chulay et al. (1983) [Journal of Infectious Diseases 148(1):148-55]; Milhous, W. K. et al. (1985) [Antimicrobial Agents and Chemotherapy 27(4):525-30]. The system is directed to the assessment of the intrinsic activity against the erythrocytic asexual life cycle (blood schizontocides)]. A minimum of 10 mg of sample is generally submitted for initial testing. Two Plasmodium falciparum clones from CDC/Indochina III (W-2) and CDC/Sierra Leone I (D-6) [Oduola, A. M. et al. (1988) [Experimental Parasitology 67(2):354-60] are used for all assays. W-2 is resistant to chloroquine, quinine and pyrimethamine and susceptible to mefloquine. D-6 is resistant to mefloquine and susceptible to chloroquine, quinine and pyrimethamine.
The clones are maintained in continuous log-phase growth in RPMI-1640 medium supplemented with 6% washed human A+ erythrocytes, 25 mM Hepes, […] NaHCO3 and 10% heat inactivated A+ human plasma or albuMAX™ (lipid-rich bovine serum albumin, GIBCO, Grand Island, N.Y.). All cultures and assays are conducted at 37° C. under an atmosphere of 5% CO2 and 5% O2, with a balance of N2.
The preliminary screen uses D-6 diluted to a 0.2% parasitemia in a 1% hematocrit in folic acid free and p-aminobenzoic acid free RPMI-1640 and albuMAX™ (FF-CM). […] The compound is further diluted to a stock solution to 10 ml with FF-CM. This stock solution is kept at −70° C. until used. The clone is preexposed, in duplicate, at three concentrations (50,000 ng/ml, 5,000 ng/ml and 50 ng/ml) of the test compound for 48 hr in a 96-well microliter plate (MTP) using a Biomek® 1000 automated laboratory workstation (Beckman Instruments, Fullerton, Calif.). Each MTP contains chloroquine-containing controls to assess the relative activity of the unknown compound and to monitor the response of D-6.
After the preincubation, [^3H]-hypoxanthine is added to each well of the MTP to determine if the parasites can still replicate or repair DNA. After 66 hr of total incubation time, the MTP are frozen to lyse the erythrocytes and parasites. The parasite DNA is recovered by harvesting the lysate onto glass-fiber filters using a Mark II cell-harvester (Tomtec, Orange, Conn.). The radioactivity is counted on a 1205 Betaplate™ liquid scintillation counter (Wallac, Turku, Finland).
The serial dilution assay is conducted using the same assay conditions and stock solution of the compound used for the preliminary screen. Both the D-6 and the W-2 clones are used. The compound is diluted two-fold over 11 different concentration ranges with a starting concentration that is based on the preliminary screen. The IC50 is determined by a non-linear logistic dose response analysis (TableCurve™, Jandel Scientific, Corte Madera, Calif.). […] For each assay, the IC50 for each clone is determined against the known antimalarials chloroquine, mefloquine, artemisinin, quinine and pyrimethamine. These control values establish the unknown compound's relative parasite susceptibility profile compared to known antimalarials. IC50s can be similarly determined for drug-resistant isolates/clones from a wide variety of geographic locations.

[1] = Table I, formula III, W2 clone (CDC/Indochina III), * run: chloroquine 0.23 μM, † run: chloroquine 0.2-0.4 μM, read-out: IC50
[2] = Plasmodium falciparum, similar tests, read-out: IC50
[3] = Table III, formula V, read-out: IC50

IC50 [1] [µM]	SMILES	other results
	CCN(CC)CCCC(C)Nc1ccnc2cc(Cl)ccc12 (stereo not drawn) [Chloroquine, chloroquine, reference compound]	IC50 (Plasmodium falciparum, Table I, formula III, W2 clone (CDC/Indochina III), * run: chloroquine 0.23 μM, † run: chloroquine 0.2-0.4 μM): 0.23 µM; IC50 (Plasmodium falciparum, Table II, formula IV, * run: chloroquine 0.2-0.4 μM): 0.2 to 0.4 µM; IC50 (Plasmodium falciparum, Table III, formula V): 0.2 to 0.4 µM; IC50 (Plasmodium falciparum, read-out: WR, IC50 (μM), Table IV, formula VI): 0.23 µM; IC50 (Plasmodium falciparum, similar tests): 0.2 to 0.4 µM; IC50 (Table I, formula III, W2 clone (CDC/Indochina III), * run: chloroquine 0.23 μM, † run: chloroquine 0.2-0.4 μM): 0.2 µM; IC50 (Table II, formula IV, * run: chloroquine 0.2-0.4 μM): 0.2 µM
	COc1ccc(C(=O)/C=C/c2cccc(Cl)c2Cl)c(OC)c1 [Compound 1]	IC50 (similar tests, read-out: IC50): 0.38 µM
0.39	COc1ccc(C(=O)/C=C/c2cccc(Cl)c2Cl)cc1OC [Compound 2]	
0.42	COc1ccc(C(=O)/C=C/c2ccc(Cl)cc2Cl)c(OC)c1 [Compound 3]	
0.47	COc1ccc(C(=O)/C=C/c2ccc(F)c(F)c2)c(OC)c1 [Compound 4]	
0.63	COc1ccc(C(=O)/C=C/c2ccc(Cl)cc2)c(OC)c1 [Compound 5]	
0.74	COc1ccc(C(=O)/C=C/c2cccc(Cl)c2)c(OC)c1 [Compound 6]	
0.77	COc1ccc(C(=O)/C=C/c2ccc(F)cc2F)c(OC)c1 [Compound 7]	
0.9	O=C(/C=C/c1cc(Cl)cc(Cl)c1)c1ccc(Cl)cc1Cl [Compound 8]	
0.96	COc1ccc(C(=O)/C=C/c2ccccc2OC)c(OC)c1 [Compound 9]	
1.3	COc1ccc(C(=O)/C=C/c2cc(F)ccc2F)c(OC)c1 [Compound 10]	
1.4	COc1ccc(C(=O)/C=C/c2ccc(N(C)C)cc2)c(OC)c1 [Compound 11]	
1.9	COc1ccc(/C=C/C(=O)c2cc(Cl)ccc2Cl)c(OC)c1 [Compound 12]	
2	COc1ccc(C(=O)/C=C/c2c(F)cccc2F)cc1OC [Compound 13]	
2.4	COc1ccc(C(=O)/C=C/c2c(Cl)cccc2Cl)c(OC)c1 [Compound 14]	
	COc1ccc(C(=O)/C=C/c2cccc(F)c2F)c(OC)c1 [Compound 15]	IC50 (similar tests, read-out: IC50): 2.8 µM
3.2	COc1ccc(/C=C/C(=O)c2ccc(Cl)c(Cl)c2)c(OC)c1 [Compound 16]	
3.6	COc1ccc(/C=C/C(=O)c2ccc(OC)cc2OC)c(OC)c1 [Compound 17]	
3.6	O=C(/C=C/c1ccc(Cl)cc1)c1ccc(Cl)cc1Cl [Compound 18]	

IC50 [1] [µM]	SMILES	other results
3.6	O=C(/C=C/c1ccccc1)c1ccc(O)cc1O [Compound 19]	
3.9	O=C(/C=C/c1ccccc1O)c1ccc(O)cc1O [Compound 21]	antimalarial activity (in words): activity similar to that of hydrazide derivative IV44A
4.2	COc1ccc(C(=O)/C=C/c2c(OC)cccc2OC)cc1OC [Compound 22]	
5.8	COc1ccc(C(=O)/C=C/c2ccccc2Cl)c(OC)c1 [Compound 23]	
5.9	COc1ccc(C(=O)/C=C/c2ccc([N+](=O)[O-])cc2)cc1OC [Compound 24]	antimalarial activity (in words): poor activity
6.9	COc1ccccc1/C=C/C(=O)c1ccccc1O [Compound 25]	
7.4	O=C(/C=C/c1ccc(O)cc1)c1ccc(O)cc1O [Compound 26]	
7.9	COc1ccc(C(=O)/C=C/c2c(Cl)cccc2Cl)cc1OC [Compound 27]	
8.1	COc1ccc(C(=O)/C=C/c2c(F)cccc2F)c(OC)c1 [Compound 28]	
8.6	COc1ccc(C(=O)/C=C/c2c(OC)cccc2OC)c(OC)c1 [Compound 29]	
8.8	COc1ccc(C(=O)/C=C/c2cc(Cl)cc(Cl)c2)cc1OC [Compound 30]	
10.1	O=C(/C=C/c1ccccc1)c1ccc(O)c(O)c1O [Compound 31]	
11.1	COc1ccc(/C=C/C(=O)c2ccc(F)cc2F)c(OC)c1 [Compound 32]	
14.6	O=C(/C=C/c1ccc(Cl)cc1Cl)c1ccc(Cl)c(Cl)c1 [Compound 33]	
14.7	O=C(/C=C/c1ccccc1O)c1ccccc1O [Compound 34]	
16.1	COc1ccc(C(=O)/C=C/c2ccc(F)c(F)c2)cc1OC [Compound 35]	
16.4	COc1ccc(/C=C/C(=O)c2ccccc2O)cc1OC [Compound 36]	
16.6	COc1ccc(C(=O)/C=C/c2ccc(Cl)cc2)cc1OC [Compound 37]	
19.5	COc1ccc(C(=O)/C=C/c2ccc(Cl)cc2Cl)cc1OC [Compound 38]	

IC50 [1] [µM]	SMILES	other results
23	O=C(/C=C/c1ccc(O)cc1)c1ccccc1O [Compound 39]	
31.7	O=C(/C=C/c1ccc(Cl)cc1)c1ccc(Cl)c(Cl)c1 [Compound 40]	
77	O=C(/C=C/c1cccc(O)c1)c1ccccc1O [Compound 41]	
109	COc1ccc(C(=O)/C=C/c2ccc(F)cc2F)cc1OC [Compound 42]	
> 148	COc1ccc(C(=O)/C=C/c2cc(Cl)cc(Cl)c2)c(OC)c1 [Compound 43]	
	COc1ccc(C(=O)/C=C/c2cccnc2)c(OC)c1 [Compound 44]	IC50 [2]: 3.1 µM
	COc1ccc(/C=C/C(=O)c2ccccn2)c(OC)c1 [Compound 45]	IC50 (read-out: IC50): 4.6 µM
	COc1ccc(/C=C/C(=O)c2cccnc2)c(OC)c1 [Compound 46]	IC50 (read-out: IC50): 7.2 µM
	O=C(/C=C/c1ccc(Cl)c([N+](=O)[O-])c1)c1ccccn1 [Compound 47]	IC50 (read-out: IC50): 8.2 µM
	O=C(C=Cc1ccccc1)n1ccnc1 [Compound 48, cinnamoylimidazole, reference compound]	antimalarial activity (in words): substantially no activity; IC50 (read-out: IC50): > 253 µM
	O=C(/C=C/c1ccc(Cl)cc1Cl)c1ccc(-n2ccnc2)cc1 [Compound 49]	IC50 [3]: 0.72 µM
	O=C(/C=C/c1cc(Cl)cc(Cl)c1)c1ccc(-n2ccnc2)cc1 [Compound 50]	IC50 [3]: 0.91 µM
	O=C(/C=C/c1cccc(Cl)c1Cl)c1ccc(-n2ccnc2)cc1 [Compound 51]	IC50 [3]: 1.8 µM
	O=C(/C=C/c1c(Cl)cccc1Cl)c1ccc(-n2ccnc2)cc1 [Compound 52]	IC50 [3]: 1.9 µM
	O=C(/C=C/c1ccc(F)cc1F)c1ccc(-n2ccnc2)cc1 [Compound 53]	IC50 [3]: 3.2 µM
	O=C(/C=C/c1c(F)cccc1F)c1ccc(-n2ccnc2)cc1 [Compound 54]	IC50 [3]: 7.8 µM
	CN(C)c1ccc(/C=C/C(=O)c2ccc(-n3ccnc3)cc2)cc1 [Compound 55]	IC50 [3]: 18 µM
	Cn1cc(/C=C/C(=O)c2ccc(-n3ccnc3)cc2)c2ccccc21 [Compound 56]	IC50 [2]: 20 µM

SMILES	IC50 [1] [µM]	other results
COc1ccc(/C=C/C(=O)c2ccc(Cl)cc2Cl)c(OC)c1 [Compound 20]	3.8	

Source: patent US6548521B1, “Inhibitors of metazoan parasite proteases” (The Regents of the University of California, priority 1992, dated 2003)
